This note sets out measurements from US20080050819A1, “Constructs for Marker Excision Based on Dual-Function Selection Marker” (BASF Plant Science GmbH, priority 2004, published 2008).

“Also recorded” adds a separate entry of the source.

The subject of one experiment is wildtype A. thaliana. The experiment is described as follows: Attempted rescue of wild-type A. thaliana grown on lethal D-serine with potential inhibitors of D-serine toxicity. Format: in vivo, Arabidopsis thaliana. To be noted: lethal concentrations of D-serine, added separately and in combinations, 0.001-50 μg ml-1. On the procedure:
(§1) To evaluate the toxic action of 3-methyl-2-oxopentanoate and 3-methyl-2-oxobutanoate, wild-type plants were sown on two sets of half strength MS agar plates, each containing one of the compounds in a range of concentrations (0.01-10 mM). […] For 3-methyl-2-oxobutanoate, 5 mM was required for complete inhibition. Further, several attempts were made to probe the nature of D-serine's toxicity.

In the next experiment the test system is DAAO transgenic plants. As to the kind of experiment: Germination of DAAO transgenic plants on D-Asn (cytosolic and peroxisomal DAAO). Format: in vivo. As to conditions: 30 mM; cytosolic and peroxisomal DAAO constructs vs wild-type.
In experiment [1] the test system is wild-type Arabidopsis thaliana. The experiment is described as follows: Growth of wild-type A. thaliana on D-amino acid media. Format: in vivo. As to conditions: 30 mM, FIG. 2.
Another experiment has as its target T1, DAAO (Rhodotorula toruloides, UniProt P80324).
T1 construct: expressed in transfected cells; host or cells: Arabidopsis thaliana (Col-0) dao1 transgenic line 10:7, stably transformed with pPCV702:dao1 (CaMV 35S); crude soluble protein extract
T1 sequence (P80324 25-368): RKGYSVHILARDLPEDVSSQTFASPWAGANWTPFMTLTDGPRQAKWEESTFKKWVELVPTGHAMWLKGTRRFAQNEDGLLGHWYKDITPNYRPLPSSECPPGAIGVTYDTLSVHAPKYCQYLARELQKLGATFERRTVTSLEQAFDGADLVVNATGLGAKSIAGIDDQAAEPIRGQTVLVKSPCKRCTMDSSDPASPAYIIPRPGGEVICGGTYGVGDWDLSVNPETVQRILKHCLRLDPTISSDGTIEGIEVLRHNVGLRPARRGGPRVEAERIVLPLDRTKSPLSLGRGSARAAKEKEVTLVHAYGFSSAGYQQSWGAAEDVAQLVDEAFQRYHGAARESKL
The experiment is described as follows: DAAO incubation of cell-free plant extracts, keto acid production by HPLC. Format: biochemical, Rhodotorula gracilis. To be noted: cell-free extracts from dao1 transgenic line 10:7. On the procedure:
Soluble proteins were extracted by shaking 0.1 g samples of plant material that had been finely pulverized in a 1.5 ml Eppendorf tube in 1 ml of 0.1 M potassium phosphate buffer, pH 8. DAAO activity was then assayed as follows. Reaction mixtures were pre-pared containing 2,120 μl of 0.1 M potassium phosphate buffer, pH 8, 80 μl of crude protein extract and 100 μl of 0.3 M D-alanine. The samples were incubated for 2 h at 30° C. The enzyme activity was then assessed, by measuring the increase in absorbance at 220 nm (E=1.090 M^−1 cm^−1) associated with the conversion of D-alanine to pyruvate, after transferring the test tubes to boiling water for 10 min to stop the reaction. In control reactions, D-alanine was added immediately before boiling. One unit of DAAO activity is defined as the turnover of one micromole of substrate per minute, and activity was expressed per gram plant biomass (fresh weight). The breakdown of D-isoleucine and D-valine in DAAO incubations, and the associated production of 3-methyl-2-oxopentanoate and 3-methyl-2-oxobutanoate, were analyzed by high-performance liquid chromatography. In other respects the reactions were carried out as described above.

Experiment [2] deals with wild-type Arabidopsis thaliana. As to the kind of experiment: Growth of wild-type A. thaliana on D-amino acid media. Format: in vivo. To be noted: for effect on growth of wild-type plantlets: FIG. 3, half-concentrated MS medium supplemented at 3 mM (Panel A) or 30 mM (Panel B); for effect on wild-type plants: concentration not stated / various concentrations. As for the experimental part: FIG. 3 Effect of various D-amino acids on plant growth. • Wild type Arabidopsis thaliana plantlets were grown on half-concentrated Murashige-Skoog medium (0.5% (wt/vol) sucrose, 0.8% (wt/vol) agar) supplemented with the indicated D-amino acid at either 3 mM (Panel A) or 30 mM (Panel B).
(§2) FIG. 4 D-amino acid dose responses of dao1 transgenic and wild-type A. thaliana. • (a-d) Growth of dao1 transgenic line 3:7 (white), 10:7 (light gray), 13:4 (gray) and wild-type (black) plants, in fresh weight per plant, on media containing various concentrations of D-serine, D-alanine, D-isoleucine and D-valine in half-strength MS with 0.5% (wt/vol) sucrose and 0.8% (wt/vol) agar. Different concentration ranges were used for different D-amino acids. The plants were grown for 10 d after germination under 16 h photoperiods at 24° C.; n=10±s.e.m., except for plants grown on D-isoleucine, where smaller Petri dishes were used, (n=6±s.e.m.). • (e-l) Photographs of dao1 transgenic line 10:7 (e-h) and wild-type plants (i-l), grown for 10 d on the highest concentrations of the D-amino acid shown in the respective graphs above. All pictures have the same magnification. FW, fresh weight.

Experiment [3] deals with dao1 transgenic A. thaliana. The experiment is described as follows: Growth of dao1 (DAAO) transgenic A. thaliana on D-amino acid media. Format: in vivo, Arabidopsis thaliana. As for the experimental part:
as §2
Therefore, plants containing the construct were tested as described above on two sets of media, one containing D-isoleucine and the other containing D-valine at various concentrations, to assess whether DAAO could also be used as a counter-selection marker. Unambiguous counter-selection selection was achieved when seeds were sown on either D-isoleucine or D-valine at concentrations greater than 10 mM (FIG. 4 c,d).

In experiment [4] the test system is DAAO transgenic seedlings. The experiment is described as follows: Spray application of D-amino acids on soil-grown DAAO transgenic seedlings. Format: in vivo, Arabidopsis thaliana. As to conditions: 50 mM spray. On the procedure:
(§3) FIG. 5: Selection of primary transformants with the DAAO marker. • (a-c) DAAO T1 seedlings on media containing 3 mM D-alanine (a), 3 mM D-serine (b) and 50 μg ml-1 kanamycin (c). Seeds were surface-sterilized and sown on half-strength MS plates with 0.5% (wt/vol) sucrose, 0.8% (wt/vol) agar and the respective selective compound, then grown for 5 d after germination under 16 h photoperiods at 24° C. • (d) DAAO transgenic plants grown on soil photographed after selection by spraying with (1) D-alanine and (2) D-serine, and wild-type plants sprayed with (3) D-alanine and (4) D-serine. Eight seeds per plot and treatment were sown on soil, and grown for 7 d after germination before applying the selective treatment, which consisted of spraying with aqueous 50 mM solutions of D-alanine or D-serine with 0.05% Tween 80 on three consecutive days.
(§4) FIG.: 11 D-amino acids are applicable by spraying procedure DAAO transgenic plants grown on soil photographed after selection by spraying with (1) D-alanine and (2) D-serine, and wild-type plants sprayed with (3) D-alanine and (4) D-serine. Eight seeds per plot and treatment were sown on soil, and grown for 7 d after germination before applying the selective treatment, which consisted of spraying with aqueous 50 mM solutions of D-alanine or D-serine with 0.05% Tween 80 on three consecutive days.

For the next experiment, the system named is wild-type seedlings. As to the kind of experiment: Spray application of D-amino acids on soil-grown wild-type seedlings. As to conditions: one-week-old seedlings, 50 mM, sprayed on three consecutive days. The class given is in vivo, Arabidopsis thaliana. As for the experimental part: as §3, §4
Experiment [5] relates to T1 seeds of transgenic Arabidopsis plants. The experiment is described as follows: Selection of DAAO (35S:dao1 / pNos:nptII) T1 seeds on selective media. The class given is in vivo, Arabidopsis thaliana. To be noted: FIG. 4a. The source says: Flowering A. thaliana plants were then transformed by the floral dip method (Clough S J & Bent A F (1998) Plant J. 16, 735-743 (1998) with the transgenic Agrobacterium tumefaciens strain carrying the vector described above by dipping for 10-20 seconds into the Agrobacterium solution. Afterwards the plants were kept in the greenhouse until seeds could be harvested. Transgenic seeds were selected by plating surface sterilized seeds on growth medium A (4.4 g/L MS salts [Sigma-Aldrich], 0.5 g/L MES [Duchefa]; 8 g/L Plant Agar [Duchefa]) supplemented with 50 mg/L kanamycin for plants carrying the nptII resistance marker, or 0.3 to 30 mM D-amino acids (as described below) for plants comprising the dual-function marker of the invention. Surviving plants were transferred to soil and grown in the greenhouse.
T1 seeds of transgenic Arabidopsis plants were surface-sterilized and sown in Petri plates that were sealed with gas-permeable tape. The growth medium was half strength MS19 with 0.5% (wt/vol) sucrose and 0.8% (wt/vol) agar, plus 3 mM D-alanine, 3 mM D-serine or 50 μg/ml kanamycin as the selective agent. […] To evaluate the selection efficiency on different substrates, 2,074, 1,914 and 1,810 T1 seeds were sown on D-alanine-, D-serine- and kanamycin-selective plates, respectively, and the number of surviving seedlings was counted (44, 32 and 43, respectively). […]

Experiment [6] concerns poplar, tobacco, barley, maize, tomato and spruce. The experiment is described as follows: Susceptibility of other plant species to D-serine. Format: in vivo. To be noted: concentrations similar to those toxic for A. thaliana; FIG. 6+7.
For experiment [7], the system named is wild-type plants (A. thaliana). The experiment is described as follows: Toxicity of keto acids to wild-type plants on half strength MS agar plates. Format: in vivo, Arabidopsis thaliana. As to conditions: for effect on growth of A. thaliana: in vivo. On the procedure:
as §1

The mark [8] stands for this setting: concentration not stated / various concentrations.
Where [9] appears, read: wild-type plants, half strength MS agar, tested range 0.01-10 mM.

On to `C[C@@H](O)[C@H](N)C(=O)O` [threonine], for which, in the experiment with wildtype A. thaliana, the “rescue (mitigation) of D-serine toxicity” value is listed as “without any success”.

As for `NC(=O)C[C@@H](N)C(=O)O` [D-Asn, D-asparagine], the “inhibition of germination of DAAO transgenic plants” value in the experiment with DAAO transgenic plants is “inhibited significantly more than the wild-type”.

`N[C@@H](CO)C(=O)O` [L-serine]: the “rescue (mitigation) of D-serine toxicity” value with wildtype A. thaliana is “without any success”.

On to calcium-pantothenate, for which the “rescue (mitigation) of D-serine toxicity” value in the experiment on wildtype A. thaliana was “without any success”.

Turning to `CC(C)(CO)[C@@H](O)C(=O)NCCC(=O)O` [pantothenic acid], in the experiment on wildtype A. thaliana, the “rescue (mitigation) of D-serine toxicity” value is listed as “could not be mitigated”.

For `NCCC(=O)O` [β-alanine], the “rescue (mitigation) of D-serine toxicity” value with wildtype A. thaliana was “without any success”; in the experiment on wildtype A. thaliana (listed as â-alanine), “could not be mitigated”.

In the case of `CC[C@@H](C)[C@@H](N)C(=O)O` [D-isoleucine], in experiment [1], the “effect on wild-type plantlets” value was “no severe damage”. Moreover, the “increase in production of the keto acid (3-methyl-2-oxopentanoate / 3-methyl-2-oxobutanoate) compared to extracts of wild-type plants” value on DAAO came out at 15 fold. Also, the “effect on growth of wild-type plantlets” value in experiment [2] was “no significant effects”. For the same compound, the “effect on wild-type plants” value in [2] is on record as “not toxic; also recorded: minor effects; also recorded: not the wild-type plants; also recorded: no sign of toxicity”. The “effect on transgenic (DAAO) plants” value in experiment [3] (30 mM) was “toxic effect”; in experiment [3] (setting [8]), “strong negative influence; also recorded: inhibit growth; also recorded: effectively killed”.

Turning to `C[C@@H](N)C(=O)O` [D-alanine], the “response of transgenic seedlings to foliar application” value in [4] was “resistant”. In addition, in [1], the “effect on wild-type plantlets” value is given as “toxic effect”. The “effect of sprayed application on wild-type seedlings” value in the experiment with wild-type seedlings is “effectively killed”. In addition, in experiment [2], the “effect on growth of wild-type plantlets” value was “severe phytotoxic effects” and the “effect on wild-type plants” value is on record as “inhibited even at quite low concentrations; also recorded: inhibited growth”. In addition, the “effect on transgenic (DAAO) plants” value in [3] (30 mM) was “no severe damage; also recorded: no negative effect”. In experiment [3] (setting [8]), the “effect on transgenic (DAAO) plants” value is “detoxify; also recorded: developed normally”.

`N[C@H](CO)C(=O)O` [D-serine]: in experiment [4], the “response of transgenic seedlings to foliar application” value is reported as “resistant”. Also, the “concentration at which efficient selection was achieved” value in experiment [5] is “lower than 1 mM”. Besides, the “toxicity to other plant species” value in experiment [6] is recorded as “toxic effects; also recorded: susceptible”. For the same compound, the “effect of sprayed application on wild-type seedlings” value with wild-type seedlings is “effectively killed”. For the same compound, the “effect on growth of wild-type plantlets” value in [2] is listed as “severe phytotoxic effects”. Besides, the “effect on wild-type plants” value in experiment [2] was “inhibited even at quite low concentrations; also recorded: inhibited growth”. Also, the “effect on transgenic (DAAO) plants” value in [3] (3 mM) is “slightly inhibited the growth”; in experiment [3] (30 mM), “significant growth inhibition”; in [3] (setting [8]) it was “detoxify; also recorded: developed normally”.

Consider `CC(C)C[C@H](N)C(=O)O` [leucine], for which, in the experiment with wildtype A. thaliana, the “rescue (mitigation) of D-serine toxicity” value is on record as “without any success”.

For `CC[C@H](C)[C@H](N)C(=O)O` [L-isoleucine], in experiment [2], the “effect on wild-type plants” value is “negative effects”.

With `CC(C)[C@@H](N)C(=O)O` [D-valine], the “increase in production of the keto acid (3-methyl-2-oxopentanoate / 3-methyl-2-oxobutanoate) compared to extracts of wild-type plants” value on DAAO worked out at 7 fold. In experiment [2], the “effect on wild-type plants” value is “not toxic; also recorded: minor effects; also recorded: not the wild-type plants; also recorded: moderately negative effect”. Besides, in experiment [3] (setting [8]), the “effect on transgenic (DAAO) plants” value is reported as “strong negative influence; also recorded: inhibit growth”.

As for `CCC(C)C(=O)C(=O)O` (stereo not drawn) [3-methyl-2-oxopentanoate], the “effect on growth of A. thaliana” value in experiment [7] is on record as “impaired growth”. For the same compound, in experiment [7] (setting [9]), the “concentration at which plants were slightly affected” value is 0.1 mM and the “concentration giving total (complete) growth inhibition” value was 1 mM.

For the compound `CC(C)C(=O)C(=O)O` [3-methyl-2-oxobutanoate], the “effect on growth of A. thaliana” value in experiment [7] is listed as “impaired growth”. In addition, the “concentration giving total (complete) growth inhibition” value in experiment [7] (setting [9]) is on record as 5 mM.
